Experimental data from ChEMBL document CHEMBL1275421, “Reduced Candida glabrata susceptibility secondary to an FKS1 mutation developed during candidemia treatment” (2008).
Converted amounts (≈) assume the structure as drawn. *1 amine or outer side, *2 acyl side, *3 side chain or, on linkers, in order; H or OH if unused. Where a SMILES comes first, the peptide text is derived from it. Bridges are numbered along the chain shown (N, C = ends). [ ]: non-standard residue; d: D form. The star is where a group is joined. hTyr(3S-OH,4S-OH,3'-OSO3H) = N[C@H](C(=O)O)[C@H](O)[C@@H](O)c1ccc(O)c(OS(=O)(=O)O)c1; pTerphenylCO(4''-OnC5H11) = CCCCCOc1ccc(-c2ccc(-c3ccc(C(=O)*)cc3)cc2)cc1; Orn(4R-OH,5R-OH) = O=C([C@H](C[C@@H](O)[C@@H](O)N[*:3])N[*:1])[*:2]; hTyr(3S-OH,4S-OH) = N[C@H](C(=O)O)[C@H](O)[C@@H](O)c1ccc(O)cc1; Pro(3S-OH,4S-Me) = C[C@H]1CN[C@H](C(=O)O)[C@H]1O; X1 = CCCCCOc1ccc(-c2cc(-c3ccc(C(=O)*)cc3)no2)cc1; Gln(3R-OH) = NC(=O)C[C@@H](O)[C@H](N)C(=O)O; Hyp = O=C(O)[C@@H]1C[C@@H](O)CN1

Tests used:
Assay type in all cases: functional
Nakaseomyces glabratus [1] = experiment: Antifungal activity against Candida glabrata 06-3170 harboring […] T1896G and D632E mutant obtained from patient on compound therapy by M27-A2 method
Nakaseomyces glabratus [2] = experiment: Antifungal activity against Candida glabrata 06-3169 harboring […] T1896G and D632E mutant obtained from patient on compound therapy by M27-A2 method
Nakaseomyces glabratus [3] = experiment: Antifungal activity against Candida glabrata 06-3168 obtained from patient on compound therapy by M27-A2 method
Pichia kudriavzevii = experiment: Antifungal activity against Candida krusei obtained from patient with acute myeloid leukemia

Compound | MIC (Nakaseomyces glabratus [1]) [µg/mL] | MIC (Nakaseomyces glabratus [2]) [µg/mL] | MIC (Nakaseomyces glabratus [3]) [µg/mL] | MIC (Pichia kudriavzevii) [µg/mL]
C[C@@H](c1ncncc1F)[C@](O)(Cn1cncn1)c1ccc(F)cc1F [VORICONAZOLE] | 0.03 (≈ 0.0859 µM) | 0.03 (≈ 0.0859 µM) | 0.03 (≈ 0.0859 µM) | –
OC(Cn1cncn1)(Cn1cncn1)c1ccc(F)cc1F [FLUCONAZOLE] | 1 (≈ 3.27 µM) | 1 (≈ 3.27 µM) | 1 (≈ 3.27 µM) | –
C[C@@H]1[C@H](O)[C@@H](C)/C=C/C=C/C=C/C=C/C=C/C=C/C=C/[C@H](O[C@@H]2O[C@H](C)[C@@H](O)[C@H](N)[C@@H]2O)C[C@@H]2O[C@](O)(C[C@@H](O)C[C@@H](O)[C@H](O)CC[C@@H](O)C[C@@H](O)CC(=O)O[C@H]1C)C[C@H](O)[C@H]2C(=O)O [AMPHOTERICIN B] | 0.125 (≈ 0.135 µM) | 0.125 (≈ 0.135 µM) | 0.125 (≈ 0.135 µM) | –
CCCCCOc1ccc(-c2cc(-c3ccc(C(=O)N[C@H]4C[C@@H](O)[C@@H](O)NC(=O)[C@@H]5[C@@H](O)[C@@H](C)CN5C(=O)[C@H]([C@H](O)CC(N)=O)NC(=O)[C@H]([C@H](O)[C@@H](O)c5ccc(O)c(OS(=O)(=O)O)c5)NC(=O)[C@@H]5C[C@@H](O)CN5C(=O)[C@H]([C@@H](C)O)NC4=O)cc3)no2)cc1 [MICAFUNGIN] (X1-[Orn(4R-OH,5R-OH)]T[Hyp][hTyr(3S-OH,4S-OH,3'-OSO3H)][Gln(3R-OH)][Pro(3S-OH,4S-Me)]; lactam 1-C) | > 2 | > 2 | 0.06 (≈ 0.0472 µM) | –
CCCCCOc1ccc(-c2ccc(-c3ccc(C(=O)N[C@H]4C[C@@H](O)[C@@H](O)NC(=O)[C@@H]5[C@@H](O)[C@@H](C)CN5C(=O)[C@H]([C@@H](C)O)NC(=O)[C@H]([C@H](O)[C@@H](O)c5ccc(O)cc5)NC(=O)[C@@H]5C[C@@H](O)CN5C(=O)[C@H]([C@@H](C)O)NC4=O)cc3)cc2)cc1 [ANIDULAFUNGIN] ({pTerphenylCO(4''-OnC5H11)}-[Orn(4R-OH,5R-OH)]T[Hyp][hTyr(3S-OH,4S-OH)]T[Pro(3S-OH,4S-Me)]; lactam 1-C) | > 2 | > 2 | 0.03 (≈ 0.0263 µM) | –
CC[C@H](C)C[C@H](C)CCCCCCCCC(=O)N[C@H]1C[C@@H](O)[C@@H](NCCN)NC(=O)[C@@H]2[C@@H](O)CCN2C(=O)[C@H]([C@H](O)CCN)NC(=O)[C@H]([C@H](O)[C@@H](O)c2ccc(O)cc2)NC(=O)[C@@H]2C[C@@H](O)CN2C(=O)[C@H]([C@@H](C)O)NC1=O [CASPOFUNGIN] | > 2 | > 2 | 0.06 (≈ 0.0549 µM) | 2 (≈ 1.83 µM)
